In patent publication US20040170581A1, “Cosmetic agents” (priority 2001, published 2004):

Experiments:
[1] = test system: superoxide anions O2° produced by lipoxygenase; assay: Anti-free radical test with superoxide anions produced by lipoxygenase; format: biochemical
Procedure: Activity against free radicals was determined by a biochemical test with a reactive oxygen species (ROS), the so-called superoxide anion (O2°). Superoxide anions come from xanthine oxidase and lipoxygenase activities. Xanthine oxidase (XOD) is an enzyme which is activated during oxidative stress and catalyzes the release of O2° during the degradation of hypoxanthine (HX) which is produced in excess in the event of a disturbance to the energy cell metabolism. O2° is then reacted spontaneously or by superoxide dismutase (SOD) to form hydrogen peroxide (H2O2) which in turn is a source of HO radicals which continue reacting in the Fenton reaction. O2° released during an inflammation process is formed from arachidonic acid by the lipoxygenase activity of leucocytes during the leucotriene synthesis (MacCord, M., Chabot Fletcher, M., Breton, J., Marshall, L.A.; Journal of Investigative Dermatology, 1994, Vol. 102, pp. 980-986; Bouclier, M., Hensby C.N.; Annales de Dermatologie & de V{acute over (en)}reologie, 1986, Vol. 113, pp. 1289-1293).
The enzymatic system arachidonic acidlipoxygenase leads during the synthesis of leucotrienes to the formation of O2° which can be determined by luminescence via luminol. Activity against free radicals is greater, the more the luminescence is suppressed.

[2] = test system: G6PDH (glucose 6 phosphate dehydrogenase); assay: G6PDH activity on human dermal fibroblasts; format: cell-based; conditions: control = 100, 8 assays
Text: This test was used to determine stimulation of the enzyme G6PDH (glucose 6 phosphate dehydrogenase) which counteracts the ageing process of human skin. G6PDH catalyzes the first step of the “pentose shunt” (also known as hexose monophosphate shunt or HMP shunt). The first step, the transformation of glucose-6-phosphate (G6P) into 6-phosphogluconate (6GP) by G6PDH, needs the coenzyme NADP which in turn is converted into NADPH2. This reduced form of the coenzyme catalyzes many enzymatic reactions and also glutathione recycling and lipid synthesis.
Determination of the G6PDH activity (glucose 6 phosphate dehydrogenase) was carried out by the microprocess described by Garidelli de Quincenet in Annual Dermatol. Venereol. 107 (12), 1163-1170 (1980). The DNA content was determined by the method described by Desaulniers in Toxic. In vitro 12 (4), 409-422 (1998) using in vitro cultures of human dermal fibroblasts. […]

[3] = test system: human keratinocytes; assay: Cell protection against UV-B rays (cellular DNA, LDH release); format: cell-based; conditions: UV-B 50 mJ/cm^2, conc. 0.01 % w/v
Procedure: UV-B was selected as the stress factor because the rays produce cutaneous inflammation ([…]) by activating enzymes that release arachidonic acid, such as phospholipase A2 (PLA2) for example. […] The influence of UV-B rays on keratinocytes was determined in vitro through the release of cytoplasmatic enzymes, such as LDH (lactate dehydrogenase) for example, which runs parallel to the cell damage and the formation of PGE2. To carry out the test, a fibroblast culture was mixed with foetal calf serum and inoculated with the test substances 2 days later. After incubation for 36 h at 37° C. and a CO2 level of 5% by vol., the nutrient medium was replaced by an electrolyte solution and the fibroblasts were damaged with a particular dose of UV-B (50 mJ/cm^2). The quantity of keratinocytes was determined after trypsination via a cell counter while the LDH concentration was enzymatically determined.

O=C(O)/C=C/c1ccc(O)c(O)c1 [Caffeic acid]
% Inhibition ([1]; concentration 0.00002 % w/v): 16%
% Inhibition ([1]; concentration 0.0002 % w/v): 54%

CC1=C(/C=C/C(C)=C/C=C/C(C)=C/C(=O)O)C(C)(C)CCC1 [Retinoic acid]
Level of G6PDH activity on day 6 (%/against control) Average value ([2]; concentration 0.0003 mM): 120 %/against control
Level of G6PDH activity on day 6 (%/against control) Average value ([2]; concentration 0.001 mM): 128 %/against control

O=C1O[C@H]([C@@H](O)CO)C(O)=C1O [ascorbic acid]
LDH released ([3]; blank with UV-B = 100): 50 %-rel.
Cellular DNA ([3]; blank without UV-B = 100, blank with UV-B = 29): 48 %-rel.
